The record followed here is patent publication US9249097B2, “3-aminocarbazole compound, pharmaceutical composition containing it and preparation method therefor” (AZIENDE CHIM. RIUN. ANG. FRANC. A.C.R.A.F. S.p.A., priority 2008, dated 2016).

Data set [1] can be described thus: Metabolic stability in rat hepatic microsomes. The settings on record: 1 μM. The protocol: (§1) This test allows evaluation of the metabolic stability of the compounds of the invention and of the comparative compounds in rats and in man.
(§2) The compounds to be analysed, at a final concentration of 0 and 1 μM, were placed in a suspension containing the pool of microsomes at a final concentration of 0.5 mg/mL in a final volume of 200 μL, in 96-well plates. The test was standardized with phosphate buffer (75 mM, pH 7.4) and with the NADPH regenerating system (MgCl2: 3.3 mM; G6P: 3.3 mM; G6PD: 0.4 U/mL; NADP+: 1.3 mM). […] The samples were incubated at 37° C. in a humidified incubator. At time 0 and after 60 minutes, 100 μL of acetonitrile containing the internal standard (0.2 μM of metoprolol and 0.4 μM of diclofenac) were added to stop the reaction.
(§3) The samples were centrifuged before analysis. The HPLC/MS/MS analysis was performed using an electrospray ion source in positive ionization and SRM (Single Reaction Mode). The chromatographic conditions entail the use of an XDB-C18 column (2.1×50 mm, Agilent) and a gradient from 5% to 91% of acetonitrile in water containing 0.1% formic acid (total runtime equal to 6 minutes); the flow rate was 0.5 ml/minute.
(§4) The areas of the peaks for the test compounds were integrated and the results expressed as the analyte area/internal standard (PAR) area ratio. For each time, two samples were analysed and the mean value calculated. The percentage of the value of remaining compound was calculated as: % unmetabolized compound=100*(mean PARTfinal/mean PART0).

Data set [2] in a line: Metabolic stability in human hepatic microsomes. The settings on record: 1 μM. The protocol: as §1, §2, §3, §4
A further data set is described as follows: in vitro. The settings on record: human, Caco-2, pH 7.4. On the procedure:
This test allows evaluation of the amount absorbed by the intestinal barrier of the compounds of the invention and of the comparative compounds using the Caco-2 cell line as an in vitro model of intestinal barrier. The permeability test on Caco-2 cells represents an in vitro system approved for predicting and estimating the in vivo intestinal absorption of a drug. When the Caco-2 cells are cultured on a porous filter for about 21 days, they have the capacity to differentiate into enterocytes.
The compounds undergoing the test were diluted from a 10 mM stock solution in HBSS to a final concentration of 10 μM. The system consisted of a confluent cellular monolayer in culture for 21-28 days.
Each compound was tested in triplicate, bidirectionally, at pH 7.4, from the apical to the basolateral compartment (A→B) and from the basolateral to the apical compartment (B→A).
The samples collected at the given time were analysed by HPLC-MS/MS, using an electrospray ion source in positive ionization and SRM (Single Reaction Mode). The chromatographic conditions entailed the use of an XDB-C18 column (2.1×50 mm, Agilent) with a gradient from 5% to 91% of acetonitrile in water containing 0.1% formic acid (total runtime equal to 6.5 minutes) and a flow rate of 0.5 ml/minute. Metoprolol was used as the internal standard.
The concentration data were used to calculate the apparent permeability values (Papp), and the mean and standard deviation of the Papp were calculated.
The flux ratio was calculated as Papp(B→A)/Papp(A→B). The recovery percentage was calculated as: (amount in the receiving compartment+amount in the donor compartment)/nominal amount
The area of the peaks of the test compounds were integrated and the results were expressed as the analyte area/internal standard area ratio and corrected for the dilution factor used during the preparation of the sample. The apparent permeability coefficients were calculated using the following equation: […]
in which: • VA volume in the receiving well (0.25 mL for the test from A→B, 0.075 mL for the test from B→A) • Area area of the membrane surface (0.11 cm^2) • Time total transport time (3600 seconds)

The subject of the next data set is production of PGE2. In words: Inhibition of PGE2 production in IL-1β-stimulated A549 cells (EIA). The class given is cell-based. The settings on record: Homo sapiens, IL-1β 1 ng/ml, 22 hours. The source says: (§5) This test allows evaluation of the inhibitory capacity on the production of the PGE2 and the selectivity relative to the production of the PGF2α.
(§6) The cell line A549, human pulmonary adenocarcinoma, was used, which is particularly sensitive to stimulation with pro-inflammatory cytokines, for instance IL-1β, and, in response to this stimulation, is particularly active in the production and release of two prostanoids: PGE2 and PGF2α (Thoren S. Jakobsson P-J, 2000).
(§7) The cells were stimulated with IL-1β (1 ng/ml) and simultaneously treated with the test compound for 22 hours in an appropriate culture medium (DMEM—Dulbecco's Modified Eagle's Medium) supplemented with 5% foetal calf serum and L-glutamine (4 mM final) in an incubator at 37° C. and at a CO2 concentration of 5%.
(§8) After the incubation, the amount of PGE2 and PGF2α produced and released into the supernatant were assayed using an EIA kit (produced and sold by Cayman Chemicals, Ann Arbor, Mich., USA).
(§9) The comparative compound used was indomethacin at a concentration of 10 nM (Sigma-Aldrich), a non-steroidal anti-inflammatory drug that inhibits in equal measure both PGE2 and PGF2α.
(§10) The results, expressed as the IC50 values, i.e. as the concentration of compound that inhibits 50% of the production of PGE2 and of PGF2α relative to the cells that have been stimulated, but not treated with the same compound, are given in Table 2. The inactivity or the reduced activity of the compound on the biosynthesis of PGF2α is an indication of selectivity towards the production of PGE2 and thus of selective inhibition of mPGES-1.

The next data set concerns production of PGF2α. In words: Inhibition of PGF2α production in IL-1β-stimulated A549 cells (EIA). The class given is cell-based. To be noted: Homo sapiens, IL-1β 1 ng/ml, 22 hours.
Source text: as §5, §6, §7, §8, §9, §10

Data set [3] is described as follows: In vivo bioavailability, oral cassette dosing. The settings on record: oral 5 mg/kg; for Cmax / Tmax / AUC(0-t): plasma; for AUC(0-t): first seven hours, read-out: AUC0-7. The protocol: This test allowed evaluation of the in vivo bioavailability of the compounds of the invention, thus making it possible to evaluate and compare the pharmacokinetic profile of the test compounds.
The tests were performed using the cassette method, i.e. by administering orally several products simultaneously to the same animal, at a dose of 5 mg/kg. The products were suspended in methylcellulose (MTC). The treated animals were catheterized for the serial collection of blood samples performed by means of an automatic sampling system. The plasmatic concentrations of the products were measured by HPLC/MS/MS. The profiles of the plasmatic concentrations over time made it possible to evaluate the relative bioavailability of the test products in terms of rate (tmax and Cmax) and […] (AUC). The slope of the curve in the end portion also allowed a comparative evaluation of the rate of elimination of the compounds from the plasma, the slower the rate, the lower the slope. Three animals were treated for each combination of compounds.
The results, expressed as the Cmax, i.e. as the maximum concentration of drug reached in the plasma, Tmax, i.e. the time required to reach the maximum drug concentration in the plasma, and AUC0-7, i.e. the area under the curve of the plasmatic concentrations of drug over time, measured in the first seven hours after administration, are given in Table 5.

The mark [4] stands for this setting: Sprague-Dawley, rat, microsomes, 1 h, pH 7.4.
Setting [5] is: microsomes 0.5 mg/mL, 60 minutes, 37° C.

Where only a bound is given, the exact number is not on record here.

With `O=C(Nc1ccc2c(c1)c1ccccc1n2CCO)c1ccccc1Cl` [Compound 5, 2-chloro-N-[9-(2-hydroxyethyl)-9H-carbazol-3-yl]benzamide], the melting point – broadly, the temperature, or range, at which the solid turns liquid – was 168 to 169 °C. In data set [1] (setting [4]), the “% unmetabolized compound, Rat” value is given as 63%. In addition, in data set [2] (human, microsomes, 1 h, pH 7.4), the “% unmetabolized compound, Man” value is on record as 76%. Moreover, in “in vitro”, the Papp (usually the rate of passage across a membrane or cell layer, normalised by area and donor concentration) at 3600 seconds, 10 μM is more than 20 ×10⁻⁶ cm/s.
As for `C[C@]12CC[C@H]3[C@@H](CCC4=CC(=O)CC[C@@]43C)[C@@H]1CC[C@@H]2O` [Testosterone, testosterone, reference compound], the “% unmetabolized compound, Rat” value in data set [1] (setting [5]) came out at 0%. Moreover, the “% unmetabolized compound, Man” value in data set [2] (setting [5]) was 27%.
`CC(C)(O)Cn1c2ccccc2c2cc(NC(=O)c3ccccc3C(F)(F)F)ccc21` [Compound 2, N-[9-(2-hydroxy-2-methylpropyl)-9H-carbazol-3-yl]-2-(trifluoro-methyl)benzamide] gave a melting point of 179 to 181 °C. For the same compound, in data set [1] (setting [4]), the “% unmetabolized compound, Rat” value worked out at 68%. Besides, the “% unmetabolized compound, Man” value in data set [2] (human, microsomes, 1 h, pH 7.4) stood at 82%. For the same compound, in the data set on production of PGE2, 2300 nM corresponded to half-maximal inhibition (IC50). Moreover, the Papp at 3600 seconds, 10 μM in the data set “in vitro” was more than 20 ×10⁻⁶ cm/s. Also, the IC50 (usually the midpoint of a concentration-inhibition curve) in the data set with production of PGF2α is more than 100000 nM. In data set [3], the “bioavailability / absorption in words” value was “good bioavailability characteristics”; the highest concentration (Cmax) (as a rule, the maximum level reached in the sampled fluid or tissue) was 984 ng/mL; the time of peak concentration (Tmax) (commonly the time from dosing to the highest level) is 4.3 h; the AUC(0-t) came to 5400 ng·h/mL.
`CC(=O)Cn1c2ccccc2c2cc(NC(=O)c3ccccc3C(F)(F)F)ccc21` [Compound 4, N-[9-(2-oxopropyl)-9H-carbazol-3-yl]-2-(trifluoromethyl)benzamide] registered a melting point of 223 to 226 °C. Besides, the “% unmetabolized compound, Rat” value in data set [1] (setting [4]) amounted to 58%. Further, the “% unmetabolized compound, Man” value in data set [2] (human, microsomes, 1 h, pH 7.4) is on record as 7%. For the same compound, in the data set with production of PGE2, it took 5600 nM to reach half-maximal inhibition (IC50). In addition, the Papp at 3600 seconds, 10 μM in “in vitro” was more than 20 ×10⁻⁶ cm/s. Also, the IC50 in the data set on production of PGF2α is more than 100000 nM.
For `CC(C)NCC(O)COc1cccc2ccccc12` (centres unmarked) [Propranolol, propranolol, reference compound], the Papp at 3600 seconds, 10 μM in the data set “in vitro” was more than 20 ×10⁻⁶ cm/s.
Regarding `CC(=O)CC(c1ccccc1)c1c(O)c2ccccc2oc1=O` (centres unmarked) [Warfarin, warfarin, reference compound], in data set [1] (setting [4]), the “% unmetabolized compound, Rat” value was 97%. Further, the “% unmetabolized compound, Man” value in data set [2] (human, microsomes, 1 h, pH 7.4) is 103%.
Compound `CC(C)(O)CCn1c2ccccc2c2cc(NC(=O)c3ccccc3Cl)ccc21` [Compound 6, 2-chloro-N-[9-(3-hydroxy-3-methylbutyl)-9H-carbazol-3-yl]benzamide] showed a melting point of 120 to 124 °C. Further, in data set [1] (setting [4]), the “% unmetabolized compound, Rat” value was found to be 74%. For the same compound, the “% unmetabolized compound, Man” value in data set [2] (human, microsomes, 1 h, pH 7.4) is on record as 65%. The compound further came in with an IC50 in the data set with production of PGE2 of 600 nM. The same compound came in with a Papp at 3600 seconds, 10 μM in the data set “in vitro” of more than 20 ×10⁻⁶ cm/s. Further, the concentration for half-maximal inhibition (IC50) in the data set with production of PGF2α is more than 100000 nM.
Consider `C[C@H]1O[C@@H](O[C@H]2[C@@H](O)C[C@H](O[C@H]3[C@@H](O)C[C@H](O[C@H]4CC[C@@]5(C)[C@H](CC[C@@H]6[C@@H]5C[C@@H](O)[C@]5(C)[C@@H](C7=CC(=O)OC7)CC[C@]65O)C4)O[C@@H]3C)O[C@@H]2C)C[C@H](O)[C@@H]1O` [Digoxin, digoxin, reference compound], for which the Papp at 3600 seconds, 10 μM in the data set “in vitro” was less than 2 ×10⁻⁶ cm/s.
As to `COc1ccc2c(c1)c(CC(=O)O)c(C)n2C(=O)c1ccc(Cl)cc1` [Indomethacin, indomethacin, reference compound], the 50% inhibitory concentration (IC50) in the data set on production of PGE2 was determined as 5 nM; in the data set with production of PGF2α it was 3 nM.
`CC(C)(O)CCn1c2ccccc2c2cc(NC(=O)c3ccccc3C(F)(F)F)ccc21` [Compound 3, N-[9-(3-hydroxy-3-methylbutyl)-9H-carbazol-3-yl]-2-(trifluoromethyl)benzamide] yielded a melting point of 188 to 189 °C. Also, the “% unmetabolized compound, Rat” value in data set [1] (setting [4]) came out at 65%. The “% unmetabolized compound, Man” value in data set [2] (human, microsomes, 1 h, pH 7.4) worked out at 77%. In addition, in the data set on production of PGE2, half-maximal inhibition (IC50) was put at 1400 nM. Moreover, the Papp at 3600 seconds, 10 μM in the data set “in vitro” is more than 20 ×10⁻⁶ cm/s. In the data set with production of PGF2α, this compound came in with a half-inhibitory concentration (IC50) of more than 100000 nM. Also, in data set [3], the “bioavailability / absorption in words” value is reported as “good bioavailability characteristics”, the peak concentration (Cmax) is 457 ng/mL, the Tmax turned out to be 1.8 h and the AUC(0-t) was found to be 2670 ng·h/mL.
